Measurements as given in ChEMBL document CHEMBL1201862, “PubChem BioAssay data set” (2004).
Active and inactive are the calls of the source.

Tests used:
fMet-Leu-Phe receptor = target: T1, fMet-Leu-Phe receptor (Homo sapiens, UniProt P21462); assay: formyl peptide receptor binders – dose response (AID 519); format: functional
T1 sequence (P21462 whole entry): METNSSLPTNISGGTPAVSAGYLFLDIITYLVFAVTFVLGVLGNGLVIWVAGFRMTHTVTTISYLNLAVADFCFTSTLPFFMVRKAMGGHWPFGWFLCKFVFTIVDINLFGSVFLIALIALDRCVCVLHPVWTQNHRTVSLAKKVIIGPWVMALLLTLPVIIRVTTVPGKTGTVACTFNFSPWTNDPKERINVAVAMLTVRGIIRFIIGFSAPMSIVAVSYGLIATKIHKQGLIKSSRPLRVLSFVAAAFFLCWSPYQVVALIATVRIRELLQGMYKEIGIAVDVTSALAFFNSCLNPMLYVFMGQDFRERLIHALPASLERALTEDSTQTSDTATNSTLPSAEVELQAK

[1] = viability loss in THP-1 monocytes – THP-1 cells, cytotoxicity control for Vif-APOBEC3G degradation inhibitor project, dose response (AID 1117359); format: functional; conditions: THP-1
[2] = HEK-293T viability loss after treatment – luminescence, T-cell screen hits, cytotoxicity control for TCR NF-kB inhibitor project, dose response (AID 489026); format: functional, cell-based;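 also: cells exposed to compound about 14 hours before the viability readout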
[3] = target: T2, COUP transcription factor 2 (Homo sapiens, UniProt P24468); assay: Luminescence-based cell-based high throughput dose response assay to identify inhibitors of COUP-TFII (NR2F2).; format: functional;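 also: HEK293 cells transiently cotransfected with COUP-TFII expression vector and reporter; luciferase reporter luminescence driven by COUP-TFII from the pX2-168 reporter plasmid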
T2 sequence (P24468 whole entry): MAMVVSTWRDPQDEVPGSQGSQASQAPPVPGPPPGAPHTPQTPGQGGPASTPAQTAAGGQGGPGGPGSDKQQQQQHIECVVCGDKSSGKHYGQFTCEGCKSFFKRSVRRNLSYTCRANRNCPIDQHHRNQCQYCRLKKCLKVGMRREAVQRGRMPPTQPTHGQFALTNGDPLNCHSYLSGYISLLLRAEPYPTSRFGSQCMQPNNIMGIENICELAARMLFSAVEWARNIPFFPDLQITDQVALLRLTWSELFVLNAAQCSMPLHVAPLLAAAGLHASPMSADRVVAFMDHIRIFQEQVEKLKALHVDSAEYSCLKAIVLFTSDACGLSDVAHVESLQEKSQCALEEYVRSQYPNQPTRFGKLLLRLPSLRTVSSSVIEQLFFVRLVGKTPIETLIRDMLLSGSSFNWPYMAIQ

INS1 = assay: INS-1E survival protection against cytokine death – cell-based, luminescence, retest, dose response (AID 449756); format: functional; conditions: Rattus norvegicus;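 also: cell death triggered by IL-1 beta plus TNF-alpha plus IFN-gamma mixture; protective hits raise ATP signal compared with cytokine alone wells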
Caspase-6 = target: T3, Caspase-6 (Homo sapiens, UniProt P55212); assay: inhibition of CASP6 peptide cleavage – biochemical, VEID-R110 fluorescence, cherry-pick, dose response (AID 720632)
T3 sequence (P55212 whole entry): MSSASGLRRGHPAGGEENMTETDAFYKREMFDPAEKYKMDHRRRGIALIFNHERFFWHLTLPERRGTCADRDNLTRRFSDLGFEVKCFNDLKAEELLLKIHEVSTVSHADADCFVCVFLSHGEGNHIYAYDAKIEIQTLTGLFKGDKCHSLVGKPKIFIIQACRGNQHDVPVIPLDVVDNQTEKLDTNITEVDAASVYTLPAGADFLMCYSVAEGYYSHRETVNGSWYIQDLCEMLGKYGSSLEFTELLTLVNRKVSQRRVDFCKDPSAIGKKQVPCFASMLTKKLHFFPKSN

[4] = target: T4, Endoribonuclease toxin MazF (Escherichia coli K-12, UniProt P0AE70); assay: substrate-only fluorescence increase artefacts – biochemical, single-stranded RNase substrate, counter-screen for MazEF activator project, dose response (AID 588502); format: functional
T4 sequence (P0AE70 whole entry): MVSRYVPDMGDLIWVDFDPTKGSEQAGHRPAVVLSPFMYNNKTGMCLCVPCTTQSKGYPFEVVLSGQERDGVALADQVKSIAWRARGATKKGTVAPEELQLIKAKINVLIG

[5] = target: T4, Endoribonuclease toxin MazF; assay: activation of MazEF endoribonuclease cleavage – biochemical, fluorescence, single-stranded RNA substrate, uHTS hits, dose response (AID 588481); format: functional
cells [6] = format: functional, cell-based
cells [7] = format: functional, cell-based; remark: listed apart in the source
[8] = HIV-1 Vif–A3G interaction blockers – biochemical, TR-FRET, GST-Vif 1-94, biotin-A3G peptide, dose response retest, primary screen (AID 1117319); format: functional;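 also: TR-FRET signal of purified GST-Vif binding a biotinylated A3G peptide; inhibitors lower the FRET signal by blocking Vif and A3G binding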
[9] = target: T5, Apoptotic protease-activating factor 1 (Homo sapiens, UniProt O14727); format: functional
T5 sequence (O14727 whole entry): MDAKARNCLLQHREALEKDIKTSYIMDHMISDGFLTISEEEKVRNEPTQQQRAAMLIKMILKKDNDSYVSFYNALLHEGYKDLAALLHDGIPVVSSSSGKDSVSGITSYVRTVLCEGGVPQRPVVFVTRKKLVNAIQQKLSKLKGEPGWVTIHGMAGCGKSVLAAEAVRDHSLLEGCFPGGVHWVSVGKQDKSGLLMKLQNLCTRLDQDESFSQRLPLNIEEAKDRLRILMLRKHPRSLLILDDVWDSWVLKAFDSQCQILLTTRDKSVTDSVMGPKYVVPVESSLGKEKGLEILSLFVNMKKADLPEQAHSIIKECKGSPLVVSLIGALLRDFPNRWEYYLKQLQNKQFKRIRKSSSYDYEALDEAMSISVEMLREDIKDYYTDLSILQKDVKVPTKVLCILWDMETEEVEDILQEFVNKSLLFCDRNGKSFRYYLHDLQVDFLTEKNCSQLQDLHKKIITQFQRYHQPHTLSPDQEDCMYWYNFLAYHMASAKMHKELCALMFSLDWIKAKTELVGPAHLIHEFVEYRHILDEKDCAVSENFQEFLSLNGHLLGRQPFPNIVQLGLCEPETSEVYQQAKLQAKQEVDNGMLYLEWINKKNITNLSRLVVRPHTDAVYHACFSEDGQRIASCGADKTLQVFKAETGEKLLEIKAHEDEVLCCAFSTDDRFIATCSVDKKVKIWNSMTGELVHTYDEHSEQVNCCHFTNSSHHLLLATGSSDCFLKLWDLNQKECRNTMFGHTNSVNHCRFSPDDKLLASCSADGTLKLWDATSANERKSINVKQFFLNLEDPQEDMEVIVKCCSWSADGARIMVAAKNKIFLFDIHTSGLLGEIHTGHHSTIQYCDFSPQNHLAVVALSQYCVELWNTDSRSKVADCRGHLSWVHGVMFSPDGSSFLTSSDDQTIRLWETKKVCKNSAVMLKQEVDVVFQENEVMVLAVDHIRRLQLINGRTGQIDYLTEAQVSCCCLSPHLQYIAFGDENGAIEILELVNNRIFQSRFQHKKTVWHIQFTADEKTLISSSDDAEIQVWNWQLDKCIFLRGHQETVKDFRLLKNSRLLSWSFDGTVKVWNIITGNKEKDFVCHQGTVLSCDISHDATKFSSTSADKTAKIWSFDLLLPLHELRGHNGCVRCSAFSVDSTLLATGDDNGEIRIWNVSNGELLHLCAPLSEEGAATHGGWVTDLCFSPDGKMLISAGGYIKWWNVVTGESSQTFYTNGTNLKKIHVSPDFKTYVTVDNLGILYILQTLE

Genome polyprotein = Genome polyprotein (dengue virus type 2, UniProt P29990); assay: flavivirus cap methylation enzyme inhibition – biochemical, confirmation dose response, primary screen (AID 588689); format: functional
Genome polyprotein, sequence (P29990 2492-3391 limits assumed): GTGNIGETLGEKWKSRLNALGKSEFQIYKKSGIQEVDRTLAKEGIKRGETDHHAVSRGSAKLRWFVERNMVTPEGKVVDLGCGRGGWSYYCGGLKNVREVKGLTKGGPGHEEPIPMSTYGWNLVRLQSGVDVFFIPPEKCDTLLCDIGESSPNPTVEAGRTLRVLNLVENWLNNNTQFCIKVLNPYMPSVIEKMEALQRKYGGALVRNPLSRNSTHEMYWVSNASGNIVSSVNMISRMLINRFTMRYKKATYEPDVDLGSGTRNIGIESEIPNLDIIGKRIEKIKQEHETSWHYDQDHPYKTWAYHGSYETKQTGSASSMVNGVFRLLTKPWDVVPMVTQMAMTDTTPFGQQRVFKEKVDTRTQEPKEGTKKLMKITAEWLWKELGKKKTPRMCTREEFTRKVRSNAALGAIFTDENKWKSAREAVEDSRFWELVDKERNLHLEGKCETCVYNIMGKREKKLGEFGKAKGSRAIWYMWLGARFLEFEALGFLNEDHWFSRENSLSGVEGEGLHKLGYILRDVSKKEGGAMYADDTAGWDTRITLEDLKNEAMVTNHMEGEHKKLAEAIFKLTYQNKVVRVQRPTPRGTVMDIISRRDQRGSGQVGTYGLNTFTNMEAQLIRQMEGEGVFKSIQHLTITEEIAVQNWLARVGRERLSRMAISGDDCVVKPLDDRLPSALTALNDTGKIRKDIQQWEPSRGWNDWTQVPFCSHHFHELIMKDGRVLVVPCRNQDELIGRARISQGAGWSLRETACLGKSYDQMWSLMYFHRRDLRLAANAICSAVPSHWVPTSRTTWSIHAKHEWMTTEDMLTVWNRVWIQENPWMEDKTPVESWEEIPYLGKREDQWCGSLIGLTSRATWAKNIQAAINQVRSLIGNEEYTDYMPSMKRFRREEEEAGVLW

[10] = target: Induced myeloid leukemia cell differentiation protein Mcl-1 (Homo sapiens, UniProt Q07820); format: functional
Induced myeloid leukemia cell differentiation protein Mcl-1, sequence (Q07820 whole entry): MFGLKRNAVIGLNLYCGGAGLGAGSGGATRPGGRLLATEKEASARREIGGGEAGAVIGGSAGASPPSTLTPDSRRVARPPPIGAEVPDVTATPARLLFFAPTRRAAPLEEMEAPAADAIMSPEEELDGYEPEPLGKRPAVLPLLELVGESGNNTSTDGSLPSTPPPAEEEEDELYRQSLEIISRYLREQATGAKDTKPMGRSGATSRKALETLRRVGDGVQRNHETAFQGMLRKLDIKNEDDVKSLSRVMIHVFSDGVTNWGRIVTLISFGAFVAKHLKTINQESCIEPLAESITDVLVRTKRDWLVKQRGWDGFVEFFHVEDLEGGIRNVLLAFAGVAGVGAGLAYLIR

With `O=C(O)CC1Oc2ccc(Cl)cc2NC1=O` (stereo unspecified) the Ki (fMet-Leu-Phe receptor) was > 66.7 µM (inactive).

For `O=C(NNc1cc(Cl)cc(Cl)c1)c1c(F)cccc1Cl`, the CC50 [1] was > 40 µM (active).

In the case of `Cc1ccc(S(=O)(=O)NCc2ccncc2)c(C)c1C`, the IC50 [2] was > 80 µM (inactive), the IC50 [3] was 5.99 µM (active) and the AC50 (INS1) was 2.48 µM (active).

In the case of `COCCN(C(=O)c1cc2c(s1)CCC2)c1c(N)n(CC(C)C)c(=O)[nH]c1=O`, the AC50 (Caspase-6) was 22.4 µM (active).

For `COc1ccc2nc(SCC(=O)N3CC(=O)Nc4ccccc43)c(C#N)cc2c1`, the EC50 [4] was > 99 µM (inactive) and the EC50 [5] was > 99 µM (inactive).

With `O=C(Cn1cnc2c(oc3ccccc32)c1=O)NCCc1ccccc1` the EC50 (cells [6]) was > 29.9 µM (inactive) and the IC50 (cells [7]) was > 29.9 µM (inactive).

With `O=C1c2ccccc2C(=O)N1CCC(c1ccc(F)cc1)c1ccco1` (stereo unspecified) the IC50 [8] was > 100 µM (active).

With `O=S(=O)(c1c[nH]cn1)N1CCc2ccccc21` the Ki (fMet-Leu-Phe receptor) was > 66.7 µM (inactive).

For `CCc1ccc[n+](-c2nc3ccccc3nc2[C-](C#N)C#N)c1`, the EC50 [4] was > 99 µM (inactive) and the EC50 [5] was 59.2 µM (inactive).

For `COC(=O)CCC(=O)OC1(C)C(=O)C2=CN(C3CCCC3)C(c3ccc(OC)cc3)=CC2=C(Br)C1=O` (stereo unspecified), the IC50 [9] was 17.4 µM (active) and the IC50 (Genome polyprotein) was 33.8 µM (active).

In the case of `c1ccc(CCc2nn3c(C4COc5ccccc5O4)nnc3s2)cc1` (stereo unspecified), the CC50 [1] was > 40 µM (active).

In the case of `COc1cc(C2Nc3cccc4cccc(c34)N2)cc(OC)c1OC(C)=O`, the CC50 [1] was > 40 µM (active) and the IC50 [10] was 2.8 µM (active).

In the case of `CC(C)(C)n1nc2c(c1NC(=O)c1ccc(Br)o1)C[S+]([O-])C2` (stereo unspecified), the IC50 [8] was > 100 µM (active).

For `CCCCC1=CC2=C(c3ccco3)C(=O)C(C)(OC(=O)c3ccc(OC)cc3)C(=O)C2=CN1CCCCO` (stereo unspecified), the IC50 [8] was > 100 µM (active).
